Key:
mouse hepatitis model = assay: Improvement effect on hepatitis, concanavalin A (ConA) mouse hepatitis model; assay type: in vivo, Blab/c mice; details: gavage 50 mg/kg, n = 10
Description: In this example, the improvement effect of compounds 1 19 prepared in example 1 on […] measured. (1) Animals: Adult and Healthy Male Blab/c Mice, 25 30 g. […] The blank control group was injected with equal volume of isotonic saline. After modeling, indomethacin and compounds 1 19 were given by gavage every day at the dose of 50 mg/kg. The blank control group and the model control group were given equal volume of isotonic saline. Eyeball blood and liver tissue were taken at 6 h, 12 h, 24 h and 48 h after administration. The levels of serum alanine aminotransferase (ALT) and aspartate aminotransferase (AST) were measured.

[1] = test system: sodium taurocholate-induced pancreatitis model; assay: Improvement effect on pancreatitis, sodium taurocholate-induced model in mice; assay type: in vivo, Blab/c mice; parameters: Pancreatic histopathological injury score: scale not given here; details: 17.5 mg/kg caudal vein 1 h, 3 h and 6 h after model construction; after 24 hours; n = 10
From the text: In this example, the improvement effect of compounds 1 19 prepared in example 1 on […] measured. (1) Animals: Adult and Healthy Male Blab/c Mice, 25 30 g. […] A model was made with sodium taurocholate. […] After anesthesia, the surgical site was sterilized with an alcohol cotton ball. The sterile gauze was placed on the surgical site. A laparotomy was made at the width of two fingers under the xiphoid process. After seeing the liver, an incision was made, the cotton swab soaked in normal saline was stretched into the enterocoelia, the duodenum was sought on the back of the liver, turned out and placed on the sterile gauze, the pancreaticobiliary duct and duodenal papilla were sought, and the needle of 1 mL syringe was used to pierce a hole on the along the direction of the nipple, a 24 G indwelling needle tube was inserted into the pancreatic duct along the nipple, and the common bile duct below the liver was closed with an arterial vascular clip, with a dose of 0.1 mL/100 g and 0.1 mL/min inject sodium taurocholate with a concentration of 3.8% at a flow rate. During this process, pay attention to adding saline to the exposed pancreas and duodenum to keep it moist. After the injection, the tube was slowly taken out and the bile duct was continued to be closed. The main tube was removed from the vascular artery clip 3 minutes later, the duodenum was also accommodated, and the abdominal cavity was sutured in double layers. The blank control group was injected with equal volume of isotonic saline. […] The blank control group and the model control group were given equal volume of isotonic saline. After 24 hours, pancreatic tissue and blood samples were taken, and the pancreatic histopathological injury score and the level of pancreatic amylase in serum were evaluated.

arthritis model = assay: Improvement effect on arthritis, sodium iodoacetate knee joint model in SD rats; assay type: in vivo; parameters: Pathological tissue score (joint): scale not given here; details: gavage every day 100 mg/kg/d; 4th week after operation; n = 10
Description: In this example, the improvement effect of compounds 1˜19 prepared in example 1 on arthritic was measured. (1) Animals: SD rats, four rates in one cage, were fed under the conditions of constant temperature (25±2° C.) and illumination control (12 h day/night circulation). The animals were fed with standard feed, and fed for at least 7 days to adapt environment before the experiment. […] (3) SD rats were fasted for 12 hours before operation, and weighed and recorded prior to operation. The blank control group was not treated any more. […] After anesthesia, they were fixed in the supine position. 0.1 ml of 1 g/L sodium iodoacetate solution was injected into the knee joint. From the fifth day, the animals were driven to run for 30 minutes every day, and they were allowed to move freely in the cage the rest of the time. After modeling, indomethacin and compounds 1˜19 were given by gavage every day at the dose of 100 mg/kg/d. The blank control group and the model control group were given equal volume of isotonic saline. At the 4th week after operation, the articular fluid of rats in each group was extracted to measure the content of MMP-13. The rats were killed, and the subchondral bone plate of the inner condyle of the tibia of the right knee was cut and processed into specimens, and pathological scores were made.

Compound	Aspartate aminotransferase (AST) (mouse hepatitis model; 6 h after administration)	Serum alanine aminotransferase (ALT) (mouse hepatitis model; 6 h after administration)	Aspartate aminotransferase (AST) (mouse hepatitis model; 12 h after administration)	Serum alanine aminotransferase (ALT) (mouse hepatitis model; 12 h after administration)	Serum alanine aminotransferase (ALT) (mouse hepatitis model; 24 h after administration)	Aspartate aminotransferase (AST) (mouse hepatitis model; 48 h after administration)	Serum alanine aminotransferase (ALT) (mouse hepatitis model; 48 h after administration)	Amylopsin (pancreatic amylase level in serum) [1]	Pancreatic histopathological injury score [1]	MMP-13 content in joint fluid (arthritis model)	Pathological tissue score (joint) (arthritis model)	Aspartate aminotransferase (AST) (mouse hepatitis model; 24 h after administration)
Cn1c(=O)c2c(ncn2C)n(C)c1=O [Caffeine, caffeine, reference compound]	260 ± 31 U/L	590 ± 54 U/L	860 ± 91 U/L	1456 ± 132 U/L	2632 ± 321 U/L	943 ± 91 U/L	1432 ± 152 U/L	16 ± 2 KU/L	2.6 ± 0.4	59 ± 8 mg/L	2.6 ± 0.4	–
CCn1c(=O)c2c(ncn2C)n(C)c1=O [Compound 1, 1-ethyl-3-7-dimethylxanthine]	43 ± 7 U/L	56 ± 8 U/L	82 ± 8 U/L	97 ± 8 U/L	132 ± 12 U/L	89 ± 9 U/L	100 ± 12 U/L	3 ± 1 KU/L	0.4 ± 0.3	86 ± 4 mg/L	0.2 ± 0.3	104 ± 8 U/L
CC(C)n1c(=O)c2c(ncn2C)n(C)c1=O [Compound 2, 1-isopropyl-3,7-dimethylxanthine]	53 ± 7 U/L	59 ± 8 U/L	89 ± 8 U/L	98 ± 6 U/L	142 ± 12 U/L	99 ± 9 U/L	112 ± 13 U/L	4 ± 2 KU/L	0.6 ± 0.2	92 ± 8 mg/L	0.3 ± 0.4	112 ± 10 U/L
CCn1c(=O)c2ncn(C)c2n(C)c1=O [Compound 3, 1-ethyl-3,9-dimethylxanthine]	59 ± 7 U/L	67 ± 8 U/L	96 ± 8 U/L	102 ± 8 U/L	152 ± 14 U/L	103 ± 9 U/L	113 ± 12 U/L	3 ± 2 KU/L	0.5 ± 0.2	97 ± 4 mg/L	0.6 ± 0.3	114 ± 11 U/L
CCn1cnc2c1c(=O)n(C)c(=O)n2C [Compound 4, 1,3-dimethyl-7-ethylxanthine]	65 ± 7 U/L	79 ± 8 U/L	91 ± 8 U/L	118 ± 9 U/L	142 ± 12 U/L	96 ± 9 U/L	105 ± 13 U/L	11 ± 2 KU/L	1.4 ± 0.4	102 ± 8 mg/L	0.6 ± 0.4	103 ± 9 U/L
CCn1c(=O)c2c(ncn2CC)n(C)c1=O [Compound 5, 1,7-diethyl-3-methylxanthine]	71 ± 7 U/L	73 ± 8 U/L	93 ± 8 U/L	109 ± 8 U/L	136 ± 12 U/L	91 ± 9 U/L	105 ± 12 U/L	3 ± 1 KU/L	0.4 ± 0.2	99 ± 5 mg/L	0.7 ± 0.3	101 ± 8 U/L
CC(C)n1cnc2c(=O)[nH]cnc21 [Compound 6, 9-isopropyl hypoxanthine]	49 ± 7 U/L	56 ± 5 U/L	86 ± 8 U/L	85 ± 6 U/L	136 ± 16 U/L	84 ± 8 U/L	103 ± 13 U/L	2 ± 1 KU/L	0.4 ± 0.1	90 ± 8 mg/L	0.3 ± 0.4	103 ± 9 U/L
CC(C)n1c(=O)c2c(ncn2C(C)C)n(C)c1=O [Compound 7, 1,7-diisopropyl-3-methylxanthine]	41 ± 7 U/L	51 ± 8 U/L	78 ± 8 U/L	93 ± 8 U/L	131 ± 12 U/L	84 ± 7 U/L	95 ± 12 U/L	4 ± 2 KU/L	0.5 ± 0.2	84 ± 5 mg/L	0.3 ± 0.3	101 ± 8 U/L
CC(=O)OCCn1c(=O)c2c(ncn2C)n(C)c1=O [Compound 8, 1-(acetic acid-2-ethyl)-3,7-dimethylxanthine]	68 ± 7 U/L	67 ± 8 U/L	95 ± 8 U/L	110 ± 13 U/L	172 ± 16 U/L	98 ± 9 U/L	132 ± 13 U/L	5 ± 2 KU/L	0.8 ± 0.4	92 ± 8 mg/L	0.4 ± 0.5	122 ± 12 U/L

— US20260083743A1, “NUCLEOSIDE DERIVATIVE FOR PREVENTING AND TREATING INFLAMMATION AND APPLICATION THEREOF” (WEST CHINA HOSPITAL OF SICHUAN UNIVERSITY, priority 2019, published 2026)
